Data reported in patent US4922021A, “New alkylene diamine derivatives” (BASF Aktiensellschaft, priority 1981, dated 1990).

Legend:
[1] = tested on: aconitin-induced arrhythmia; assay: animal or person; conditions: Mus musculus, ip, read-out: Delay in time of appearance of arrhythmia
[2] = in vivo; conditions: mouse, ip
[3] = tested on: left auricle; assay: Electrophysiological tests on isolated rabbit heart, left auricle; parameters: species or system rabbits; conditions: 2 mg/l, average
Experimental: (§1) Heart of rabbits of both sexes, weighing 1-2 kg, were removed, the right and left auricles and a segment of the right ventricle were prepared and placed into a vessel filled with nutrient solution. Bipolar platinum electrodes (a stimulating electrode and a lead electrode) were placed onto the organ strips, and the electric stimulus threshold and the speed of impulse condution were measured. The effective refractory period determined on the basis of the maximum driving frequency.

[4] = tested on: aconitin-induced arrhythmia; conditions: mouse, in vivo; for Delay in the appearance time of arrhythmia: po, 100 mg/kg
[5] = tested on: ouabain-induced arrhythmia; assay: Ouabain-induced arrhythmia in anaesthetized dogs; assay type: in vivo; conditions: i.v.; for Complete suspension, number of cases: protection > 30 min = complete
Experimental: Anaesthetized dogs of both sexes were treated intravenously with an infusion of 60 /ug/kg of ouabain to provoke arrhythmia, and the arrhythmic state was maintained with an ouabain dose 60 times less than the initial. In this way a ventricular tachycardia or tachyarrhythmia lasting for more than 180 minutes was provoked. The compounds were tested during this period. The period of recovered normal sinus rhythm was recorded, and when a compound exerted protective effect for more than 30 minutes, this fact was regarded as complete protection. The tests were performed essentially according to the method of Piascik et al. [Can.
Examination of the anti-arrhythmic effect in dogs anaesthetized with a 30
of pentobarbital sodium and treated with ouabain

[6] = tested on: myocardial contractile force, arterial blood pressure and pulse rate; assay: Inotropic effects (myocardial contractile force) in anaesthetized cats; assay type: in vivo; conditions: i.v.; for Contractility, change: basal 100
Experimental: Cats were anaesthetized with chloralose-urethane, a cannula was lead into the femoral artery, and the cannula was connected, through a Statham P 23 Db pressure sensor, to a Hellige recorder, where the arterial blood pressure and the pulse rate were recorded. The animals were respirated artifically, their chests were opened, and a strain gage was sutured on the left heart. The strain gage was connected to the Hellige recorder, and the variations in cardiac contractile force were recorded. The test compounds were administered to the animals intravenously through a cannula.

[7] = tested on: fibrillation threshold of the heart; assay: Determination of the fibrillation threshold in anaesthetized cats; assay type: in vivo; conditions: i.v.
Source text: The chests of the cats were opened under chloralose-urethane anaesthesia a bipolar stimulating electrode was fixed onto the heart, and the heart was stimulated electrically with a frequency of 20 Hz, under continuously increasing current strength, until a fibrillo-flattern could be observed. This current strength was regarded as the fibrillation threshold of the animal.

[8] = tested on: barium chloride-induced arrhythmia; assay: Barium chloride-induced arrhythmia in awake rabbits; assay type: in vivo; conditions: i.v., 2 mg/kg; arrhythmia suspended for at least 3 minutes
Experimental: The compounds to be tested were administered intravenously to the animals 3 minutes after treating them with barium chloride, and the effect was recorded. It was regarded as a positive protecting effect when the compound suspended the arrhythmic condition for at least 3 minutes.

[9] = tested on: systemic and pulmonary circulation; assay: Effects on the systemic and pulmonary circulation of awake cats; assay type: in vivo; conditions: i.v., 1.0 mg/kg
Source text: Cats were anaesthetized with pentobarbital, and cannulas were placed into the carotis artery and, through the jugular vein, into the pulmonary artery. An additional cannula was placed into the jugular vein for the administration of the test compound. The cannulas were filled up with heparin in order to avoid blood clotting. Thereafter the wounds were sutured, and the cannulas were led below a bandage placed around the neck of the animal. 3 days after this operation the systemic arterial blood pressure, the pulmonary arterial pressure and the pulse rate of the awake animals were measured with a Hellige recorder, connected to the cannulas through a Statham P 23 Db type pressure transducer.

[10] = tested on: right ventricle; assay: Electrophysiological tests on isolated rabbit heart, right ventricle; parameters: species or system rabbits; conditions: 2 mg/l, average
Experimental: as §1

With `Cc1cccc(C)c1N(C)CC(C)N(C)C` (centres unmarked) [1-[N-methyl-N-(2,6-dimethylphenyl)-amino]-2-dimethylamino-propane] as the compound, how does the change in vivo at 50 mg/kg [1] read?
Its change in vivo at 50 mg/kg is 78%.

What does the source list for `Cc1cccc(C)c1NCC(C)N(C)C` (centres unmarked) [1-(2,6-dimethylphenyl-amino)-2-dimethylamino-propane]?
LD50 [2]: 114 mg/kg; change in vivo at 10 mg/kg [1]: 17.2%; change in vivo at 25 mg/kg [1]: 72.7%; change in vivo at 50 mg/kg [1]: 138%; change in vivo at 75 mg/kg [1]: 212%; Change of the conduction time [3]: +12%; Change of the effective refractory period [3]: +20%; Change of the electric stimulus threshold [3]: +32%; column headed by drawing 10 (apparently LD50/ED50) ([4]; ip): 5.7; Delay in the appearance time of arrhythmia [4]: +74.0%; Average time of partial suspension ([5]; 0.5 mg/kg): 0.4 min; Complete suspension, number of cases ([5]; 0.5 mg/kg): 0/15; Average time of partial suspension ([5]; 1.0 mg/kg): 1.5 min; Complete suspension, number of cases ([5]; 1.0 mg/kg): 0/15; Average time of partial suspension ([5]; 2.0 mg/kg): 5.7 min; Complete suspension, number of cases ([5]; 2.0 mg/kg): 4/15; Average time of partial suspension ([5]; 4.0 mg/kg): 6.4 min; Complete suspension, number of cases ([5]; 4.0 mg/kg): 3/12; Average time of partial suspension ([5]; 8.0 mg/kg): 10.0 min; Complete suspension, number of cases ([5]; 8.0 mg/kg): 5/9; Arterial blood pressure, change ([6]; 0.5 mg/kg): -7 mmHg; Pulse/minute, change ([6]; 0.5 mg/kg): +10 /minute; Contractility, change ([6]; 0.5 mg/kg): -5%; Arterial blood pressure, change ([6]; 1.0 mg/kg): -10 mmHg; Pulse/minute, change ([6]; 1.0 mg/kg): +15 /minute; Arterial blood pressure, change ([6]; 2.0 mg/kg): -30 mmHg; Pulse/minute, change ([6]; 2.0 mg/kg): -10 min⁻¹; Arterial blood pressure, change ([6]; 5.0 mg/kg): -40 mmHg; Pulse/minute, change ([6]; 5.0 mg/kg): -25 min⁻¹; Contractility, change ([6]; 5.0 mg/kg): -33%; Effect on the fibrillation threshold ([7]; 0.5 mg/kg): +8.6%; Effect on the fibrillation threshold ([7]; 1.0 mg/kg): +12.2%; Effect on the fibrillation threshold ([7]; 2.0 mg/kg): +27.0%; Effect on the fibrillation threshold ([7]; 4.0 mg/kg): +53.9%; Protecting effect, number of animals [8]: 5/10; Pulmonary arterial mean pressure, change ([9]; basal 13): +2.8 mmHg; Arterial blood pressure, change ([9]; basal 102): +2 mmHg; Pulse/minute, change ([9]; basal 190-200): -9 min⁻¹; Change of the conduction time [10]: +12%; Change of the effective refractory period [10]: +18%; Change of the electric stimulus threshold [10]: +6%

Which change in vivo at 10 mg/kg [1] does the source give for `CCC(N)CNc1c(C)cccc1C` (centres unmarked) [1-(2,6-dimethylphenyl-amino)-2-amino-butane] here?
The change in vivo at 10 mg/kg was 3%.

What about the change in vivo at 25 mg/kg [1] of the same compound?
Its change in vivo at 25 mg/kg is 40.8%.

What about the change in vivo at 50 mg/kg [1] of the same compound?
Its change in vivo at 50 mg/kg is 104%.

And the change in vivo at 75 mg/kg [1]?
Its change in vivo at 75 mg/kg is 149%.

And the “Delay in the appearance time of arrhythmia” value [4]?
Its value is “+33.0%”.

Which results are given for `CCN(CC)CC(=O)Nc1c(C)cccc1C.Cl` [N-(diethylamino-acetyl)-2,6-dimethylaniline hydrochloride, reference compound]?
change in vivo at 5 mg/kg [1]: 1%; change in vivo at 10 mg/kg [1]: 16.2%; change in vivo at 25 mg/kg [1]: 33.7%; change in vivo at 40 mg/kg [1]: 70.1%; Delay in the appearance time of arrhythmia [4]: +38.0%; Average time of partial suspension ([5]; 0.5 mg/kg): 0.5 min; Complete suspension, number of cases ([5]; 0.5 mg/kg): 0/15; Average time of partial suspension ([5]; 1.0 mg/kg): 1.6 min; Complete suspension, number of cases ([5]; 1.0 mg/kg): 0/15; Average time of partial suspension ([5]; 2.0 mg/kg): 2.5 min; Complete suspension, number of cases ([5]; 2.0 mg/kg): 1/15; Average time of partial suspension ([5]; 4.0 mg/kg): 2.5 min; Complete suspension, number of cases ([5]; 4.0 mg/kg): 3/14; Average time of partial suspension ([5]; 8.0 mg/kg): 7.5 min; Complete suspension, number of cases ([5]; 8.0 mg/kg): 2/11; Effect on the fibrillation threshold ([7]; 0.5 mg/kg): 0%; Effect on the fibrillation threshold ([7]; 1.0 mg/kg): +2.0%; Effect on the fibrillation threshold ([7]; 2.0 mg/kg): +17.7%; Effect on the fibrillation threshold ([7]; 4.0 mg/kg): +39.1%; Protecting effect, number of animals [8]: 2/10

Which results are given for `Cc1cccc(C)c1NCC(C)N` (centres unmarked) [1-(2,6-dimethylphenyl-amino)-2-amino-propane]?
LD50 [2]: 135 mg/kg; change in vivo at 25 mg/kg [1]: 17%; change in vivo at 50 mg/kg [1]: 87.3%; change in vivo at 100 mg/kg [1]: 124%; Delay in the appearance time of arrhythmia [4]: +27.0%

With `Cc1cccc(C)c1NC(C)CN.Cl.Cl` (centres unmarked) [1-Amino-2-(2,6-dimethylphenyl-amino)-propane dihydrochloride] as the compound, how does the LD50 [2] read?
The LD50 was 155 mg/kg.

And the change in vivo at 25 mg/kg [1]?
The change in vivo at 25 mg/kg was 16.6%.

What about the change in vivo at 50 mg/kg [1] of the same compound?
The change in vivo at 50 mg/kg was 60%.

And the change in vivo at 100 mg/kg [1]?
The change in vivo at 100 mg/kg was 127%.

And the “Delay in the appearance time of arrhythmia” value [4]?
The value was “+41.0%”.
